# Paper PMC4849758, “Rational Structure-Based Rescaffolding Approach to De Novo Design of Interleukin 10 (IL-10) Receptor-1 Mimetics” (PLoS ONE, 2016)
# Bridge positions count the residues as written; N and C are the ends. Square brackets hold non-standard residues; d marks the D form. Peptide text beside a SMILES is read from it. * marks the point of attachment. Trp(5-OH) = N[C@@H](Cc1c[nH]c2ccc(O)cc12)C(=O)O; Butanoyl(4-guanidino) = N=C(N)NCCCC(=O)*
# Experiments:
# mIL-10C149Y [1] = target: T1, mIL-10C149Y (Mus musculus, UniProt P18893, C167Y); assay: Thermal denaturation by circular dichroism (CD), Kd estimate from two-state unfolding model; assay type: binding, murine; conditions: 4.5 μM mimetic; for increase of native protein structure in presence of mimetic, percentage of the total change in the CD signal: at 332 K, average CD signal 215-230 nm, 2 μM mIL-10C149Y; for Kd: calculated from thermal denaturation CD data, 2 μM mIL-10C149Y dimer, two-state unfolding model, lower affinity limit reported
# T1 construct: His8 tag (LEHHHHHHHH) from pET41b(+) (C); made in house
# T1 sequence (P18893 19-178 C167Y): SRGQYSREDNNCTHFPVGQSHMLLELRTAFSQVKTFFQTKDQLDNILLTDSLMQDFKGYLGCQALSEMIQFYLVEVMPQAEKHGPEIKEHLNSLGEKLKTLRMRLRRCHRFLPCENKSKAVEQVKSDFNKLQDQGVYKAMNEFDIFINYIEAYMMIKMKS
# Experimental: M1 was chemically synthesized, and its experimental binding affinity towards IL-10 was assessed by thermal stability measurements using circular dichroism (CD) and fluorescence (see materials and methods). For these studies, we used the readily available murine IL-10 mutant mIL-10C149Y in which Cys149 was replaced by the corresponding Tyr residue of the human protein, as it was previously shown to enhance protein refolding yield. Furthermore, this tyrosine would enhance the sensitivity of tryptophan fluorescence measurements (i.e. as stated above, it can act as energy donor for the tryptophan residue introduced as label in the mimetics).
# Complex formation between M1 and mIL-10C149Y was determined by thermal denaturation using CD and the well-known negative ellipticity of IL-10 between 200 to 300 nm. […] The obtained curves shift to higher temperatures in the presence of M1. The shift is due to a lower degree of unfolded protein at any temperature in the presence of mimetic M1 as compared to the denaturation of mIL-10C149Y alone. […] At 332 K, the presence of M1 increased the native protein structure by 8%.
# CD spectra were recorded with a J-815 instrument (Jasco, Gross-Umstadt, Germany) from 195 to 300 nm in 1-cm cuvettes at concentrations of 2 μM of mIL-10C149Y (dimer) and 4.5 μM of mimetics M1-M4. Ellipticity θ was recorded in millidegrees. Samples were heated from 298 to 364 K at a rate of 2 K/min under constant stirring to determine stabilization of IL-10/mimetic complexes. Estimates of binding affinities were derived with the assumption of a two state unfolding of mIL-10C149Y. The mimetics were assumed to stabilize exclusively the folded state. These simplifications allow applying equilibrium thermodynamics, such that the fraction Sn of the native state of mIL-10C149Y can be approximated: Sn = (1+ [M] Kd^-1 +Ku)^-1. Kd is the estimated dissociation constant of the mimetic, [M] its concentration. Ku is the temperature-dependent unfolding equilibrium constant (Ku = [denatured]/[native]) as measured by the unfolding curve of mIL-10C149Y in the absence of mimetics. […] In this case, the measured CD curves would be actually compatible with much higher mimetic affinities, because a local stabilization of the mimetic binding epitope on mIL-10C149Y is not counted as binding in the applied two state model but it is very likely to occur. For consistency, we have not explored the higher affinity limit that would still be compatible with the data. Instead, we report only the lower affinity range that complies with the assumptions, in order to prevent bias for overestimated mimetic affinities. […] Absolute thermodynamic parameters could only be obtained by isothermal titration calorimetry with the most promising mimetics. This of course required the initial confirmation of the binding of the precursor molecules which was accomplished by CD and Fluorescence Spectroscopy. Fluorescence emission at 360 nm was monitored simultaneously with the CD scan (the measuring beam served as the excitation light) using a second monochromator and photomultiplier in 90° geometry with respect to the CD absorption path. Thereby, temperature-dependent excitation spectra of the tryptophan at position two in the synthetic IL-10R1 mimetics were additionally obtained with the CD data acquisition.
# mIL-10C149Y [2] = target: T1, mIL-10C149Y; assay: Isothermal titration calorimetry (ITC); assay type: binding, murine; conditions: for TΔS, entropic component of binding / ΔH, enthalpic term of binding: ITC; for TΔS, entropic component of binding / ΔH, enthalpic term of binding / Kd: 298 K; for Kd: inferred from ITC thermodynamic data, single site model, variable stoichiometry; for fold increase of binding affinity with respect to M2-M4 / fold increase of binding with respect to M1: ratio of Kd values; for fold increase of binding with respect to M1: M1 Kd from thermal denaturation
# From the text: Further ligand optimization was accomplished by the introduction of an additional N-terminal H-bond acceptor such as Gln or Glu (M5, M6), which would allow interactions with the cationic side chains of IL-10R27 and IL-10K34 (helix A) or with IL-10N148 (helix F’) (Fig 2A). Favourable energies obtained for the interaction of IL-10 with an aliphatic carboxylate chemical probe supported this rationale. Furthermore, residues IL-10L46 (loop AB) and IL-10I145 (helix F’) would additionally contribute with van der Waals interactions with the aliphatic moieties of the side chains of the residues introduced at the N-teminus. […] Furthermore, these measurements supported the expected stoichiometry 2:1 mimetic:dimer-protein binding ratio as previously observed for the IL-10R1/IL-10 complex.
# The final constant heat signals were subtracted to correct for the solution enthalpy of the respective IL-10R1 mimetics. The resulting integrated heat curve was analyzed with the associated software Origin 9 [74] allowing a variable stoichiometry but restriction to a single Kd value (identical binding sites of the dimeric protein).
SMILES,"increase of native protein structure in presence of mimetic, percentage of the total change in the CD signal (mIL-10C149Y [1]) [%]",Kd (mIL-10C149Y [1]) [µM],"TΔS, entropic component of binding (mIL-10C149Y [2]) [kcal/mol]","ΔH, enthalpic term of binding (mIL-10C149Y [2]) [kcal/mol]",Kd (mIL-10C149Y [2]) [µM],fold increase of binding affinity with respect to M2-M4 (mIL-10C149Y [2]),fold increase of binding with respect to M1 (mIL-10C149Y [2])
"CC(=O)N[C@@H](CCCNC(=N)N)C(=O)N[C@H]1CCCCNC(=O)C[C@@H](C(=O)N[C@H]2CCCCNC(=O)C[C@@H](C(=O)N[C@@H](CCCNC(=N)N)C(=O)N[C@@H](C)C(N)=O)NC(=O)[C@H](C(C)C)NC(=O)[C@H](CCCCN)NC(=O)[C@H](CCCNC(=N)N)NC2=O)NC(=O)[C@H](Cc2ccc(O)cc2)NC(=O)[C@H](CCCNC(=N)N)NC(=O)[C@H](Cc2c[nH]c3ccccc23)NC1=O [M4] (Ac-RKWRYDKRKVDRA-NH2; lactam 2-6, 7-11)",11,8.4,,,,,
"CC(=O)N[C@@H](CCC(=O)O)C(=O)N[C@@H](CCCCN)C(=O)N[C@H]1CCCCNC(=O)C[C@@H](C(=O)N[C@H]2CCCCNC(=O)C[C@@H](C(=O)N[C@@H](CCCNC(=N)N)C(=O)N[C@@H](C)C(N)=O)NC(=O)[C@H](C(C)C)NC(=O)[C@H](CCCCN)NC(=O)[C@H](CCCNC(=N)N)NC2=O)NC(=O)[C@H](Cc2ccc(O)cc2)NC(=O)[C@H](CCCNC(=N)N)NC(=O)[C@H](Cc2c[nH]c3ccccc23)NC1=O [M5] (Ac-EKKWRYDKRKVDRA-NH2; lactam 3-7, 8-12)",,,9.5,-0.5,0.07 ± 0.02,more than 70 fold,more than 400 fold
"CC(C)[C@@H]1NC(=O)[C@H](CCCCN)NC(=O)[C@H](CCCNC(=N)N)NC(=O)[C@@H](NC(=O)[C@@H]2CC(=O)NCCCC[C@H](NC(=O)CCCNC(=N)N)C(=O)N[C@@H](Cc3c[nH]c4ccc(O)cc34)C(=O)N[C@@H](CCCNC(=N)N)C(=O)N[C@@H](Cc3ccc(O)cc3)C(=O)N2)CCCCNC(=O)C[C@@H](C(=O)N[C@@H](CCCNC(=N)N)C(=O)N[C@@H](C)C(N)=O)NC1=O [M3] ({Butanoyl(4-guanidino)}-K[Trp(5-OH)]RYDKRKVDRA-NH2; lactam 1-5, 6-10)",12,6.7,,,,,
"CC(C)[C@@H]1NC(=O)[C@H](CCCCN)NC(=O)[C@H](CCCNC(=N)N)NC(=O)[C@@H](NC(=O)[C@@H]2CC(=O)NCCCC[C@H](NC(=O)CCCNC(=N)N)C(=O)N[C@@H](Cc3c[nH]c4ccccc34)C(=O)N[C@@H](CCCNC(=N)N)C(=O)N[C@@H](Cc3ccc(O)cc3)C(=O)N2)CCCCNC(=O)C[C@@H](C(=O)N[C@@H](CCCNC(=N)N)C(=O)N[C@@H](C)C(N)=O)NC1=O [M2] ({Butanoyl(4-guanidino)}-KWRYDKRKVDRA-NH2; lactam 1-5, 6-10)",16,5,,,,,
"CC(=O)N[C@@H](CCC(=O)O)C(=O)N[C@@H](CCCNC(=N)N)C(=O)N[C@H]1CCCCNC(=O)C[C@@H](C(=O)N[C@H]2CCCCNC(=O)C[C@@H](C(=O)N[C@@H](CCCNC(=N)N)C(=O)N[C@@H](C)C(N)=O)NC(=O)[C@H](C(C)C)NC(=O)[C@H](CCCCN)NC(=O)[C@H](CCCNC(=N)N)NC2=O)NC(=O)[C@H](Cc2ccc(O)cc2)NC(=O)[C@H](CCCNC(=N)N)NC(=O)[C@H](Cc2c[nH]c3ccccc23)NC1=O [M6] (Ac-ERKWRYDKRKVDRA-NH2; lactam 3-7, 8-12)",,,9.5,-0.5,0.04 ± 0.02,more than 70 fold,more than 400 fold
"CC(=O)N[C@H]1CCCCNC(=O)C[C@@H](C(=O)N[C@H]2CCCCNC(=O)C[C@@H](C(=O)N[C@@H](CCCNC(=N)N)C(=O)N[C@@H](C)C(N)=O)NC(=O)[C@H](C(C)C)NC(=O)[C@H](CCCCN)NC(=O)[C@H](CCCNC(=N)N)NC2=O)NC(=O)[C@H](Cc2ccc(O)cc2)NC(=O)[C@H](CCCNC(=N)N)NC(=O)[C@H](Cc2c[nH]c3ccccc23)NC1=O [M1] (Ac-KWRYDKRKVDRA-NH2; lactam 1-5, 6-10)",8,> 30,,,,,
